From ChEMBL document CHEMBL1201862, “PubChem BioAssay data set” (2004)
Activity calls are given as the source filed them.

Legend:
Protein skinhead-1 = molecular target: T1, Protein skinhead-1 (Caenorhabditis elegans, UniProt P34707); assay type: functional
T1 sequence (P34707 whole entry): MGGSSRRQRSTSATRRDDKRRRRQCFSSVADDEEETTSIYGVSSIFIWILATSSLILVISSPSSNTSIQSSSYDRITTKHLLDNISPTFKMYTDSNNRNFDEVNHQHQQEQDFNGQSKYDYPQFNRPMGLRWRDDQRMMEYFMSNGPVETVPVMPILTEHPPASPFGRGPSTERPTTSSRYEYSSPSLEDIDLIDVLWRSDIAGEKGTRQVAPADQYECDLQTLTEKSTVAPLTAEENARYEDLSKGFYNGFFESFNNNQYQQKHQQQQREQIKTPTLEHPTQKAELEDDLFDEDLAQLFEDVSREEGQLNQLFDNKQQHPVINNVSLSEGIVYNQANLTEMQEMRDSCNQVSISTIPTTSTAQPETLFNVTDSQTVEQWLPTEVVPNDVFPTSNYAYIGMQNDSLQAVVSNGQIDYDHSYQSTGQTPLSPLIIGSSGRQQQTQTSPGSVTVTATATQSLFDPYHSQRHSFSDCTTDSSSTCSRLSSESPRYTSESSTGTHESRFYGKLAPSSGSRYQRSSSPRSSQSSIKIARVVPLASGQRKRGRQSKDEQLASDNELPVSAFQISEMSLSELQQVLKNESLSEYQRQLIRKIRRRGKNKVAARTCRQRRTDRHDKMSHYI

Cytochrome P450 3A4 = Cytochrome P450 3A4 (Homo sapiens, UniProt P08684);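 note: CYP3A4 tested as one member of a cytochrome P450 panel screen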
Aminopeptidase N = molecular target: T2, Aminopeptidase N (Plasmodium falciparum FcB1/Columbia, UniProt O96935); test: malaria alanyl aminopeptidase activity blockers – biochemical, fluorogenic H-Leu-NHMec substrate, 1536-well (AID 1445); parameters: species or system Plasmodium falciparum 3D7, 3D7
T2 sequence (O96935 whole entry): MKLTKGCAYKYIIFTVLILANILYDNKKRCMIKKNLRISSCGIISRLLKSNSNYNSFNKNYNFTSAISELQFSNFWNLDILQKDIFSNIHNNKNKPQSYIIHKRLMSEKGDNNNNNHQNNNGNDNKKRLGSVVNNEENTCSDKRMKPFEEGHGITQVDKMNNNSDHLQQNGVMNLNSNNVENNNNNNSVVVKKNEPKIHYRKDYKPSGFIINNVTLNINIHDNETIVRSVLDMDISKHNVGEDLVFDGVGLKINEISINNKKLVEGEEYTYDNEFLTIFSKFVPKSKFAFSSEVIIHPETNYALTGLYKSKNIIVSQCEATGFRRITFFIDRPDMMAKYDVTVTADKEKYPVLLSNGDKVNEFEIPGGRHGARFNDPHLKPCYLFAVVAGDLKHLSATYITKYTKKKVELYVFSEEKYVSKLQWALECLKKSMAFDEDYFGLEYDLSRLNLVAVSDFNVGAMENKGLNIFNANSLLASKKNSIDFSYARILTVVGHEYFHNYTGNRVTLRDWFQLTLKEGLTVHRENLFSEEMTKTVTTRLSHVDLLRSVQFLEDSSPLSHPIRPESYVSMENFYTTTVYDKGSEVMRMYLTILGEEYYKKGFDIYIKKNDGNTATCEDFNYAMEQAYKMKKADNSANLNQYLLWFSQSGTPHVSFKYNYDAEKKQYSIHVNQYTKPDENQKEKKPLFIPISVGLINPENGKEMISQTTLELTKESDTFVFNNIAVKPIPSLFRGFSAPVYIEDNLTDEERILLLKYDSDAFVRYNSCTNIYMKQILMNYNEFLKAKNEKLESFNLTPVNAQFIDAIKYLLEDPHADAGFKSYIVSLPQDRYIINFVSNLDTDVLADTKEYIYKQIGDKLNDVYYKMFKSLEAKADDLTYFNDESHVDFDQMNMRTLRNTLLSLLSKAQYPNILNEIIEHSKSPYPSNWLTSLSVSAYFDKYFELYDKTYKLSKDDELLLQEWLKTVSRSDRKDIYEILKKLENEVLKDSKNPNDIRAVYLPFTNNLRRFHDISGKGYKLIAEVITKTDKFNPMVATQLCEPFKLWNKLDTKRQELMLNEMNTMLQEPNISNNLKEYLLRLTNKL

[1] = molecular target: Induced myeloid leukemia cell differentiation protein Mcl-1 (Homo sapiens, UniProt Q07820); assay type: functional
Large T antigen = Large T antigen (Simian virus 40, UniProt P03070); assay type: functional, Betapolyomavirus macacae;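 note: Confirmatory-stage PubChem screen for compounds that inhibit SV40 T antigen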
[2] = molecular target: Heat shock protein HSP 90-alpha (Homo sapiens, UniProt P07900); assay type: functional, organism-based
BJ [3] = test: cells; assay type: functional, cell-based; conditions: Homo sapiens
[4] = molecular target: T3, Heat shock factor protein 1 (Mus musculus, UniProt P38532); test: decrease of HSF1-responsive luciferase luminescence – cell-based, NIH3T3, dose retest, confirmation (AID 2382); assay type: functional;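 note: NIH3T3 fibroblasts with HSF1-driven luciferase reporter stressed by proteasome inhibitor MG132; luminescence from HSF1-driven luciferase expression after 8 hours of MG132 stress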
T3 sequence (P38532 whole entry): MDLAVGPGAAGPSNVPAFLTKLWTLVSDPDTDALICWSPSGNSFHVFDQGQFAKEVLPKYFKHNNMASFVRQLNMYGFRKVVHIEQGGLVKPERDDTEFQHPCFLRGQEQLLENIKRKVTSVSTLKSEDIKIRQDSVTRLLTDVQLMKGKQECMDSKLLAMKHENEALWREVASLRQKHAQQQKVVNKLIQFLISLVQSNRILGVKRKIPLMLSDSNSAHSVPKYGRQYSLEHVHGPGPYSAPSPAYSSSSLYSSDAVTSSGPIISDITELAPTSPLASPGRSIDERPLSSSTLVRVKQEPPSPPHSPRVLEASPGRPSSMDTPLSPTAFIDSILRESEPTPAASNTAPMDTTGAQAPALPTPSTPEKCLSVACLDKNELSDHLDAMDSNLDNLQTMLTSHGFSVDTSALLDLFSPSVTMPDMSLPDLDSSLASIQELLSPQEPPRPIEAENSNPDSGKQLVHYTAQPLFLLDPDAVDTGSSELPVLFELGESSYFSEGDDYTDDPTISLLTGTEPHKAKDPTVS

[5] = DRD fibroblast viability loss – cell-based, non-viral oncogenic, luminescence, dose response (AID 1934); assay type: functional; conditions: Homo sapiens
Vero = test: cells; assay type: functional; conditions: Chlorocebus sabaeus
BJ [6] = test: BJ-TERT-LT-ST fibroblast viability loss – cell-based, RAS-independent, luminescence, dose response (AID 1935); assay type: functional; conditions: Homo sapiens;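 note: BJ fibroblasts immortalized with TERT plus LT and ST oncogenes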
Paired box protein Pax-8 = Paired box protein Pax-8 (Homo sapiens, UniProt Q06710); test: PAX8 transcriptional activity inhibition in RMG-I – RMG-I cells, luciferase, cherry-pick, dose response (AID 687027); assay type: functional, cell-based;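 note: luciferase reporter driven by Pax8 target thyroperoxidase promoter measured by SteadyGlo luminescence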
BJ [7] = test: BJ-TERT fibroblast viability loss – cell-based, RAS-independent, luminescence, dose response (AID 1933); assay type: functional; conditions: Homo sapiens
[8] = Luminescence Cell-Based Dose Retest to Confirm Inhibitors of Cancer Stem Cells. [Related pubchem assays (depositor defined):AID2717, AID2721]; assay type: functional; conditions: Homo sapiens
Cytochrome P450 2C9 = Cytochrome P450 2C9 (Homo sapiens, UniProt P11712)
Cytochrome P450 2C19 = Cytochrome P450 2C19 (Homo sapiens, UniProt P33261); test: Cytochrome panel assay with activity outcomes. Panel member name: p450-cyp2c19 Compounds with AC50 equal or less than 10 uM are considered active; assay type: functional; conditions: read-out: AC50
[9] = activation of miR-122 Renilla sensor silencing – cell-based, Huh7 psiCHECK-miR122, Renilla luciferase, cherry-picked, dose response (AID 651956); assay type: functional;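 note: huh7 hepatoma cells stably carrying a psiCHECK-2 miR-122 sensor plasmid; renilla luciferase signal reporting endogenous miR-122 activity after 48 h compound exposure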
[10] = viability of uninfected HEp-2 cells – cell-based, HTS, cytotoxicity control for RSV inhibitor project, dose response (AID 2410); assay type: functional; conditions: human respiratory syncytial virus
[11] = blockers of HIV-1 ZM109 envelope-driven cell-cell fusion – HeLa effector, CEM target cells, luciferase, cherry-pick, dose response (AID 652058); assay type: functional, cell-based;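 note: luciferase signal from HIV-1 Env mediated cell-cell fusion of effector and target cells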
[12] = HIV-1 AD8 envelope cell-cell fusion blockers – cherry-pick, dose response (AID 652062); assay type: functional, cell-based;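 note: luciferase signal from cell-cell fusion driven by HIV-1 clade B AD8 Env; potency is for inhibitors of fusion seen as a drop in luminescence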
[13] = off-target signal loss in HeLa-CEM21 co-culture – HeLa F-luc CTL cells, cherry-picked, counter-screen for HIV-1 Env fusion inhibitor project, dose response (AID 652040); assay type: functional, cell-based;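 note: potency for signal decrease marking cytotoxic or nonspecific inhibition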
[14] = blockers of HIV-1 envelope-mediated cell-cell fusion – cherry-pick, dose response (AID 652057); assay type: functional, cell-based
Cytochrome P450 2D6 = Cytochrome P450 2D6 (Homo sapiens, UniProt P10635);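 note: CYP2D6 member of a cytochrome P450 panel assay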
[15] = intracellular Trypanosoma cruzi inhibitors in host cells – cell-based, plate reader, cherry-pick samples, set 3, dose response (AID 651818); assay type: functional;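 note: compounds incubated with infected cells for about four days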

Sequence of Cytochrome P450 3A4 (P08684 whole entry): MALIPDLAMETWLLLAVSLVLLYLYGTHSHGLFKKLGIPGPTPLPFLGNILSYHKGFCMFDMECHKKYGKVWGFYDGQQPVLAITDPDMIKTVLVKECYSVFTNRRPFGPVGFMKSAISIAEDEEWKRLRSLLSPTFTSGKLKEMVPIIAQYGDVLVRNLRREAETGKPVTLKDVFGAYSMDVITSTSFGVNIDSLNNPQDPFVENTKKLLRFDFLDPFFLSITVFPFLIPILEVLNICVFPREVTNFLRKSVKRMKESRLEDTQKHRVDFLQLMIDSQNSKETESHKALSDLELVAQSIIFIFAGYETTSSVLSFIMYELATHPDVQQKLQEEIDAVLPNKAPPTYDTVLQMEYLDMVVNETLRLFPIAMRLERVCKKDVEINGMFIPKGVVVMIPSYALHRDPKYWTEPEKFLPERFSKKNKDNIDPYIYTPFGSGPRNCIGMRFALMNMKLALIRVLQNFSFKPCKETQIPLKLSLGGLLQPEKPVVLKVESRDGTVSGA
Sequence of Cytochrome P450 2C9 (P11712 whole entry): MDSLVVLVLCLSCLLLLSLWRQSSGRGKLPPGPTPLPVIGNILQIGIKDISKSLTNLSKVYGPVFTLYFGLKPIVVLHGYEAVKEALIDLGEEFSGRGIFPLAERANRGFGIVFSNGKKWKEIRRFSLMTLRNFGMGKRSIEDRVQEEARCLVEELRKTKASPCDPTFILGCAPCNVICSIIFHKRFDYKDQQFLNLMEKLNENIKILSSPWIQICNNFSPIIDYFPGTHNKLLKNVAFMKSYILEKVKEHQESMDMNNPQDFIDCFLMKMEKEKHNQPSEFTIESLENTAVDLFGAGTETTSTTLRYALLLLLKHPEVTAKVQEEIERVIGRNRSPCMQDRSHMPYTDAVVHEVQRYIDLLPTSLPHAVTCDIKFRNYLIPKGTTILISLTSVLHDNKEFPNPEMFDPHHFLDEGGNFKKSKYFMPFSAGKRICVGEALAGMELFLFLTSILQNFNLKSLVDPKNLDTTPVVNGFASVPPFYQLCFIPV
Sequence of Induced myeloid leukemia cell differentiation protein Mcl-1 (Q07820 whole entry): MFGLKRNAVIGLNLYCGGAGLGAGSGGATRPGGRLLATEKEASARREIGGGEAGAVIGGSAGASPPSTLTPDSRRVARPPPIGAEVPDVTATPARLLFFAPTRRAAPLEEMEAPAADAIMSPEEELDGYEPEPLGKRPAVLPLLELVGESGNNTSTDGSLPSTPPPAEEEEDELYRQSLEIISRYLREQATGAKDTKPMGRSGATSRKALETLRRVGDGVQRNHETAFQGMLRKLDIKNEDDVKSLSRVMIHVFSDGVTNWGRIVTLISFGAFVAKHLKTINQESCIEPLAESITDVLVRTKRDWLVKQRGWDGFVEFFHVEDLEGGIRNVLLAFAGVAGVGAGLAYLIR
Sequence of Large T antigen (P03070 whole entry): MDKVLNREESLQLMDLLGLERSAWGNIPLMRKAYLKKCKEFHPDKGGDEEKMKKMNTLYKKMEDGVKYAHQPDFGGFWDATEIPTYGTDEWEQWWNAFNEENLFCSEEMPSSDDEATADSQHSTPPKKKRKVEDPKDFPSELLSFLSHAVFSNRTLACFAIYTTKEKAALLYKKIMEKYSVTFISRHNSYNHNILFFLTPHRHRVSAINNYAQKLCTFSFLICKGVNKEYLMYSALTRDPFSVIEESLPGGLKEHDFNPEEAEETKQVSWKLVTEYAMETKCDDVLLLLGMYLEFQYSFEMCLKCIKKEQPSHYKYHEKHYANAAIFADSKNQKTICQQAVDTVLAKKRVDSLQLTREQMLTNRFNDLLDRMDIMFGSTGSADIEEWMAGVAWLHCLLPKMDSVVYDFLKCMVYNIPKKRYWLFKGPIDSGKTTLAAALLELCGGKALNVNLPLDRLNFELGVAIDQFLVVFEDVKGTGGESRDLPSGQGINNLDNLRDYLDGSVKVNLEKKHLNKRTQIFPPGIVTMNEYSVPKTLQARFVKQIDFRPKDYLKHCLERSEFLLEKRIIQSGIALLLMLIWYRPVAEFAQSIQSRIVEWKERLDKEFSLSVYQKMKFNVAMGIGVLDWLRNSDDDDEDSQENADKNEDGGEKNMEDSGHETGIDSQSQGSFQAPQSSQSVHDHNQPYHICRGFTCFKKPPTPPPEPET
Sequence of Cytochrome P450 2C19 (P33261 whole entry): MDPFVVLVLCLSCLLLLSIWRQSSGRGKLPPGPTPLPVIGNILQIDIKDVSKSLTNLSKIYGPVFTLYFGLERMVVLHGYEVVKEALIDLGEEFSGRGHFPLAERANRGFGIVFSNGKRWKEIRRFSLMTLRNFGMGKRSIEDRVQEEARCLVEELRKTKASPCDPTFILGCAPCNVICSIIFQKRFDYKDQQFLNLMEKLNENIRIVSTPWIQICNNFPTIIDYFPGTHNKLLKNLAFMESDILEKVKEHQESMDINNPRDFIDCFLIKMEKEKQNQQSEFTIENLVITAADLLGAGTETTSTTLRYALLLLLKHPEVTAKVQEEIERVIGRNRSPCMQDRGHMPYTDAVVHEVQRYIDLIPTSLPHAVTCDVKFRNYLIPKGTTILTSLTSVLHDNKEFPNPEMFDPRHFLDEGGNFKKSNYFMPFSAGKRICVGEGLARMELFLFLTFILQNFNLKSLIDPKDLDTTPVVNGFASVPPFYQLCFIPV
Sequence of Cytochrome P450 2D6 (P10635 whole entry): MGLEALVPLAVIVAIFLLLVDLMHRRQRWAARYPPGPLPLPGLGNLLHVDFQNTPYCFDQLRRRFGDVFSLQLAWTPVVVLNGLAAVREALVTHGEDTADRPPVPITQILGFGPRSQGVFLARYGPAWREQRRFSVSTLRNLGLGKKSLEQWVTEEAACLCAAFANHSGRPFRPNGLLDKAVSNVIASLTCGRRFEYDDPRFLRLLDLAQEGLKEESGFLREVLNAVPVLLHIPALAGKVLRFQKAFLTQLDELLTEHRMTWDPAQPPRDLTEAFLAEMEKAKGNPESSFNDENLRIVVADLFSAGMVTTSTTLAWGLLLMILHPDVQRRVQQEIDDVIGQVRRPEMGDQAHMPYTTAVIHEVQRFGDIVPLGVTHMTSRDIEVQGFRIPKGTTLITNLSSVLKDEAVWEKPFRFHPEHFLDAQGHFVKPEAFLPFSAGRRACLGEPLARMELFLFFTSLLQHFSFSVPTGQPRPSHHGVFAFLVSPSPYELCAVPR
Sequence of Paired box protein Pax-8 (Q06710 whole entry): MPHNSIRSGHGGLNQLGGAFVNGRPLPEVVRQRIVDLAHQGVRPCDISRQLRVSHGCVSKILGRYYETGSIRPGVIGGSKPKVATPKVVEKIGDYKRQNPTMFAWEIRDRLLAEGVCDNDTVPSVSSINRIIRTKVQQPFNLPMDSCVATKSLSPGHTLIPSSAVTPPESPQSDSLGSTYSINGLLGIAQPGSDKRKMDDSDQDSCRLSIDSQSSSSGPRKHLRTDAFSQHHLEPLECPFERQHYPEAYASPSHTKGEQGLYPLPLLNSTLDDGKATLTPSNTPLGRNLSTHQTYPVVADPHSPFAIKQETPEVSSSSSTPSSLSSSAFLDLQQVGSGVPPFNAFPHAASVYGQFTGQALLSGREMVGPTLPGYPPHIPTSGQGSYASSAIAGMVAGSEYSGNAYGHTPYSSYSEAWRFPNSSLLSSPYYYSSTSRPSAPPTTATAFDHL

Structure (SMILES): COc1ccc(/C=C/C(=O)c2nc3ccccc3n2CC(=O)c2ccc(OC)cc2)cc1
- IC50 (Protein skinhead-1): > 100 µM (inactive)

Structure (SMILES): C[C@@]12CC[C@H]3[C@@H](CCC4=CC(=O)CC[C@]43C)[C@H]1CC[C@H]2C(=O)CO
- AC50 (Cytochrome P450 3A4): inconclusive

Structure (SMILES): CCOc1cc(/C=C2/C(=N)N3N=C(c4ccccc4)SC3=NC2=O)ccc1O
- IC50 (Aminopeptidase N): 30.1 µM (active)
- IC50 [1]: 3.61 µM (active)
- IC50 (Large T antigen): 10.2 µM (active)

Structure (SMILES): S=C1SCN(Cc2cccnc2)CN1Cc1cccnc1
- AC50 [2]: 4.53 µM (active)
- EC50 (BJ [3]): 4.49 µM (active)
- EC50 [4]: > 195 µM (not active)
- EC50 [5]: 8.06 µM (inconclusive)
- CC50 (Vero): 10.4 µM (active)
- EC50 (BJ [6]): 26.1 µM (active)
- AC50 (Paired box protein Pax-8): 3.62 µM (active)
- EC50 (BJ [7]): 2.48 µM (active)

Structure (SMILES): COc1cc(NC(=O)c2csc(N)n2)cc(C(=O)Nc2cccc(C(F)(F)F)c2)c1
- EC50 (BJ [3]): 52.4 µM (inconclusive)
- EC50 [5]: 4.71 µM (active)
- EC50 (BJ [6]): 111 µM (active)
- AC50 [8]: 2.19 µM (active)
- EC50 (BJ [7]): 8.47 µM (inconclusive)

Structure (SMILES): CCSc1ncnc2c1sc1nc(-c3ccco3)c3c(c12)CC(C)(C)OC3
- AC50 (Cytochrome P450 3A4): inconclusive
- AC50 (Cytochrome P450 2C9): 2 µM (inconclusive)

Structure (SMILES): N#Cc1ccc(CN2CCC3(CC2)CCN(C(=O)Oc2ccccc2)CC3)cc1
- AC50 (Cytochrome P450 3A4): inconclusive

Structure (SMILES): COc1ccccc1Nc1nc(-c2sc(NC(=O)c3ccc([N+](=O)[O-])cc3)nc2C)cs1
- IC50 [1]: 0.449 µM (active)
- AC50 (Cytochrome P450 2C19): 1.58 µM (inconclusive)
- AC50 (Cytochrome P450 2C9): 3.55 µM (inconclusive)

Structure (SMILES): CC(=O)O[C@H]1CC[C@@]2(C)[C@@H](CC[C@H]3[C@H]2CC(=O)[C@@]2(C)[C@@H]3C[C@H]3CC(C)=CC(=O)[C@H]32)C1
- AC50 (Cytochrome P450 3A4): inconclusive

Structure (SMILES): Cc1nc(Oc2ccccc2)c2oc3ccccc3c2n1
- IC50 (Protein skinhead-1): > 100 µM (inactive)

Structure (SMILES): COc1ccc(C(=O)C2CCCN(Cc3cccn3-c3ccccn3)C2)c(OC)c1 (stereo unspecified)
- AC50 [9]: 21.8 µM (active)

Structure (SMILES): O=C(Oc1ccccc1)N1CCC2(CC1)CCN(c1ccccc1)CC2
- AC50 (Cytochrome P450 3A4): inconclusive

Structure (SMILES): O=C(/C=C/c1ccc(Cl)cc1)Nc1ccc(CN2CCOCC2)cc1
- IC50 (Protein skinhead-1): 14.3 µM (active)

Structure (SMILES): COc1ccc(NC2CC(=O)N(CCc3ccccc3)C2=O)cc1 (stereo unspecified)
- IC50 (Protein skinhead-1): > 100 µM (inactive)

Structure (SMILES): Clc1ccc2c(c1)c1cc(Cl)ccc1n2CN1CCOCC1
- CC50 [10]: 17.9 µM (active)
- IC50 (Protein skinhead-1): 74.5 µM (inactive)

Structure (SMILES): CCOC(=O)c1c(C)c(C)n2c1NC(=O)C2
- IC50 (Protein skinhead-1): > 100 µM (inactive)

Structure (SMILES): Cc1nc2ccc3nc(NC(=O)c4ccc(S(=O)(=O)N5CCOCC5)cc4)sc3c2s1
- AC50 (Cytochrome P450 3A4): inconclusive

Structure (SMILES): O=C(NCc1nc2ccccc2[nH]1)C1=C[C@H](C2CCCCC2)C[C@H](OCc2ccc(CO)cc2)O1
- IC50 (Protein skinhead-1): > 100 µM (inactive)
- CC50 (Vero): 16.1 µM (active)

Structure (SMILES): Cc1ccc2c(c1)[C@H]1[C@H](CO2)[C@H](c2ccccc2)[C@]2(C)C(=O)N(CC3CCCO3)CC(=O)N12 (stereo partly specified)
- AC50 [11]: 2.05 µM (active)
- AC50 [12]: 9.2 µM (active)
- AC50 [13]: 4.49 µM (active)
- AC50 [14]: 2.63 µM (active)

Structure (SMILES): C#CC[N+](CC)(CC)CC#Cc1cccc(Cl)c1.[Br-]
- AC50 (Cytochrome P450 3A4): inconclusive
- AC50 (Cytochrome P450 2D6): 2.24 µM (inconclusive)

Structure (SMILES): CC[C@]1(C(=O)OC)[C@H]2C(=O)N(Cc3ccccc3)C(=O)[C@H]2[C@H]2CN=C(SCc3ccc(C)cc3)N21
- AC50 [11]: 1.56 µM (active)
- AC50 [12]: 3.41 µM (active)
- AC50 [13]: 3.14 µM (active)
- AC50 [14]: 2.43 µM (active)

Structure (SMILES): O=C1[C@H]2[C@@H](C3CC3)N3C(=O)CN(CC4CC4)C(=O)[C@@]3(Cc3ccccc3)[C@H]2C(=O)N1c1ccccc1
- AC50 [11]: 3.84 µM (active)
- AC50 [12]: 1.69 µM (active)
- AC50 [13]: 3.51 µM (active)
- AC50 [14]: 1.76 µM (active)

Structure (SMILES): C[C@@H]1CN([C@H](C)CO)C(=O)Cc2cc(NC(=O)Cc3ccccc3)ccc2O[C@@H]1CN(C)Cc1ccc(Cl)c(Cl)c1
- AC50 [15]: 2.51 µM (active)

Structure (SMILES): C/C=C/c1ccc([C@H]2[C@@H](CO)N(Cc3ccccn3)[C@H]2CNC(=O)CC)cc1
- AC50 [9]: 53.3 µM (active)

Structure (SMILES): C[C@H]1CN([C@@H](C)CO)C(=O)c2cccc(NC(=O)Nc3cccc4ccccc34)c2O[C@H]1CN(C)Cc1ccc(C(=O)Nc2ccccc2N)cc1
- AC50 [15]: 3.59 µM (active)

Structure (SMILES): C[C@@H]1CN([C@H](C)CO)C(=O)c2cccc(NS(=O)(=O)c3cccs3)c2O[C@@H]1CN(C)Cc1ccc(C(F)(F)F)cc1
- AC50 [11]: < 0.26 µM (active)
- AC50 [12]: 2.1 µM (active)
- AC50 [14]: < 0.26 µM (active)
